Columns and labels:
Assay type in all cases: cell-based
St. Aereus = assay: Antimicrobial testing by agar dilution, St. Aereus; conditions: Staphylococcus aureus; after 10, 20, 40 and 60 min at all dilutions 1:100, 1:200, 1:400, 1:800; summary in words
Description: (§1) The antimicrobial properties of the 5-(4-methoxyphenyl)-1-hexyl-2-(4-nitrophenyl)-4-phenyl-1H-imidazole was studied by the method of agar dilution. Test solutions of each compound was prepared in concentration of 1% using dimethylformamide as a solvent then they are diluted in physiological solution to obtain the final experimental dilutions 1:100, 1:200, 1:400, 1:800. The effect of these substances are compared with furacillin in a controllable study. The testing microbes used were gram positive bacteria St. Aereus, gram negative bacteria E. Coli, Ps. aeruginosa and Candida albicans fungi were taken. The experiments used for this survey were meat-pentonlu agar (EPA) for cultivation of bacteria and Saburo environment for fungi. Each experiment used 1 ml of test solution on each plate 500 min. Add 2 drops of emulsified with microbes feel. All experimental samples were taken from the agar after 10, 20, 40, 60 minutes in the environment on the basis of Patrk planted. Bacteria were cultivated at a temperature of 37° C. for 1 day and the mushroom was kept in a thermostat for […] at a temperature of 28° C. in the. Then results were checked.

E. Coli = assay: Antimicrobial testing by agar dilution, E. Coli; conditions: Escherichia coli; after 10, 20, 40 and 60 min at all dilutions 1:100, 1:200, 1:400, 1:800; summary in words
Description: as §1

Ps. aeruginosa = assay: Antimicrobial testing by agar dilution, Ps. aeruginosa; conditions: Pseudomonas aeruginosa; after 10, 20, 40 and 60 min at all dilutions 1:100, 1:200, 1:400, 1:800; summary in words
Description: as §1

Candida albicans = assay: Antimicrobial testing by agar dilution, Candida albicans; conditions: after 10, 20, 40 and 60 min at all dilutions 1:100, 1:200, 1:400, 1:800, summary in words
Description: as §1

Measured: inhibition activity

CCCCCCn1c(-c2ccc([N+](=O)[O-])cc2)nc(-c2ccccc2)c1-c1ccc(OC)cc1 [5-(4-methoxyphenyl)-1-hexyl-2-(4-nitrophenyl)-4-phenyl-1H-imidazole]
most higher inhibition activity: all assays above

Reference: US12006296B1, “5-(4-methoxyphenyl)-1-hexyl-2-(4-nitrophenyl)-4-phenyl-1H-imidazoleas an antimicrobial compound” (KING FAISAL UNIVERSITY, priority 2023, dated 2024)
